Square brackets hold non-standard residues; d marks the D form. Ends that are not written are not given here. Peptide text beside a SMILES is read from it. d2Nal = N[C@H](Cc1ccc2ccccc2c1)C(=O)O; Aib = CC(C)(N)C(=O)O
Legend:
[1] = tested on: cancer patients; test: 12 week double blind, placebo controlled, randomized parallel study, Anderson Symptom Assessment System (ASAS) test; format: in vivo, human; conditions: 12 weeks
Description: A double blind, placebo controlled, randomized study was designed to investigate the ability of growth hormone secretagogues to be used for the treatment of emetic conditions.
82 human subjects were enrolled in a 12 week parallel study. Of the 82 subjects, 74 subjects were classified in the intent to treat group (ITT). These 74 subjects all had active cancer, received at least one dose of study medication, and had at least one post-dose efficacy measurement. The 74 subjects were separated into two groups: the placebo group and the RC-1291 group. 30 of the 36 placebo group subjects and 33 of the 38 RC-1291 group subjects were receiving some form of chemotherapy. The RC-1291 group received 50 mg of RC-1291 in two 25 mg capsules daily. The placebo group received two capsules daily.
The effect of RC-1291 administered to cancer patients was compared to the effect of placebo administered to a similar group of patients. In order to determine the ability of RC-1291 to reduce a subject's cancer symptom burden, i.e. Quality-of-Life, subjects were administered the Anderson Symptom Assessment System (ASAS) test prior to, during and at the completion of the study. The ASAS test is conducted by asking subjects to rate on a 0-10 scale the severity of 10 symptoms: pain, fatigue, nausea, depression, anxiety, drowsiness, shortness of breath, appetite, sleep and feeling of well being (see, Palmer et al. (2005) J. Pain and Symptom Management 6:565-571). The text below reflects and inversion of the ASAS scores such that higher values reflect a better Quality-of-Life: […]

[2] = tested on: cancer patients; test: Separate crossover study (3 days treatment), ASAS nausea symptom scale; format: in vivo, human
Procedure: The effect of RC-1291 administered to cancer patients was compared to the effect of placebo administered to a similar group of patients. In order to determine the ability of RC-1291 to reduce a subject's cancer symptom burden, i.e. Quality-of-Life, subjects were administered the Anderson Symptom Assessment System (ASAS) test prior to, during and at the completion of the study. The ASAS test is conducted by asking subjects to rate on a 0-10 scale the severity of 10 symptoms: pain, fatigue, nausea, depression, anxiety, drowsiness, shortness of breath, appetite, sleep and feeling of well being (see, Palmer et al. (2005) J. Pain and Symptom Management 6:565-571). The text below reflects and inversion of the ASAS scores such that higher values reflect a better Quality-of-Life:
In a separate crossover study, 16 cancer patients were treated with RC-1291 or placebo as described above for 3 days, washed out for ˜5 days and then administered placebo or RC-1291 (whichever one they had not received in the initial 3 day period). 12 of 16 placebo group subjects and 11 of the 16 RC-1291 group subjects were receiving some form of chemotherapy.

[3] = tested on: ferrets treated with cisplatin; test: Anti-emetic response assay in ferrets treated with cisplatin; format: in vivo, ferret; conditions: for average vomiting episodes during the 4-hour observation period / average retching episodes during the 4-hour observation period: cisplatin 10 mg/kg i.p., two i.v. injections 30 min apart, ghrelin 0.25, ipamorelin 1.0 mg/kg/dose; for average vomiting episodes during the 4-hour observation period: saline control 1.78; for average retching episodes during the 4-hour observation period: saline control 4.89; for anti-emetic efficacy relative to control animals, conclusion in words: i.v., ghrelin 0.25 mg/kg/dose, ipamorelin 1.0 mg/kg/dose; for onset time of emetic response following cisplatin administration (latent period): vs saline control, 4-hour observation
Description: The purpose of this study was to evaluate the anti-emetic response of Ipamorelin following a single intravenous injection (slow bolus) in ferrets treated with cisplatin.
30 male ferrets (24-weeks old) were used in this experiment. Subsequent to arrival, all animals were subjected to a general physical examination by a qualified member of the veterinary staff to ensure normal health status. An acclimation period of at least one week was allowed between the animal receipt and the start of treatment in order to accustom the animals to the laboratory environment.
Animals were randomized into the following groups:
Dosing occurred on consecutive days with approximately equal numbers of animals from each group being dosed on each day. Immediately following a single intraperitoneal injection of cisplatin, the controUreference/test article was administered via a slow intravenous injection via the cephalic or saphenous vein. Thirty minutes later, a second slow intravenous injection of the controUreference/test article was administered via a slow intravenous injection via the cephalic or saphenous vein. On each occasion, the dose volume was 5 mL/kg (cisplatin as well as control/reference/test article) and the actual dose administered was based on the most recent practical body weight of each animal.
Following dosing, the ferrets were monitored and observed for episodes of emesis for an approximate four hour period, which was subdivided into 10-minute intervals. The time prior to the first episode of retching or vomiting was recorded (latent period), as well the total number of retching and vomiting periods, over each 10-minute interval, through the overall observation period (4 hours post dose).
For the purposes of this study, episodes of emesis were defined as rhythmic abdominal contractions associated with oral expulsion of solid or liquid material from the gastrointestinal tract (i.e. vomiting) or not associated with the passage of material (i.e. retching). An episode of retching and/or vomiting was considered separate when an animal changed position in the cage or when the interval between retches and/or vomits exceeds an approximate 5 second period.
The anti-emetic response was evaluated using the individual observation for: the latent period, the average of retching episodes per 10-minute interval with presence of retching, the average of vomiting episodes per 10-minute interval with presence of vomiting, the total frequency of retching episodes for the observation period, the total frequency of vomiting episodes for the observation period, the total number of 10-minute intervals with presence of retching and the total number of 10-minute intervals with presence of vomiting. Whenever there was no retching or vomiting episode for the whole animal observation period, the latent period was set to 4 hours and the average of retching/vomiting episodes per interval with presence of retching/vomiting was set to zero. Each of these seven parameters was submitted to the following statistical comparison.
The non-parametric Kruskal-Wallis test was used to compare all considered groups. If the Kruskal-Wallis test was significant (p<0.05), then the Saline Control group was compared to each treated group using Dunn's test.

| Compound | increase in total ASAS score relative to baseline ([1]; 50 mg daily in two 25 mg capsules, inverted ASAS scores (higher = better Quality-of-Life), placebo decrease of 5.13) | overall difference in total ASAS score between the two groups ([1]; RC-1291 50 mg daily vs placebo, p-0.0287) | ASAS nausea symptom scale, overall difference between treatment groups ([1]; RC-1291 50 mg daily vs placebo, p=0.0046) | onset of anti-nausea effects [2] | ASAS nausea symptom scale, overall difference between treatments ([2]; RC-1291 vs placebo, p=0.0756) | nausea (ASAS nausea symptom scale), result in words ([2]; increased nausea with placebo) | average vomiting episodes during the 4-hour observation period [3] | average retching episodes during the 4-hour observation period [3] | anti-emetic efficacy relative to control animals, conclusion in words [3] | reduction in number of retching episodes compared to saline control animals ([3]; ipamorelin 1.0 mg/kg/dose i.v., p<0.05) | reduction in vomiting episodes relative to saline control animals ([3]; ipamorelin 1.0 mg/kg/dose i.v., p>0.05) | onset time of emetic response following cisplatin administration (latent period) [3] |
| --- | --- | --- | --- | --- | --- | --- | --- | --- | --- | --- | --- | --- |
| CN(C)N(C)C(=O)[C@@]1(Cc2ccccc2)CCCN(C(=O)[C@@H](Cc2c[nH]c3ccccc23)NC(=O)C(C)(C)N)C1 [RC-1291] | 1.52 | 6.66 | 1.46 | ≤ 3 days | 0.71 | Decreased nausea | – | – | – | – | – | – |
| CC(C)(N)C(=O)N[C@@H](Cc1c[nH]cn1)C(=O)N[C@H](Cc1ccc2ccccc2c1)C(=O)N[C@H](Cc1ccccc1)C(=O)N[C@@H](CCCCN)C(N)=O [Ipamorelin] (H-[Aib]H[d2Nal][dF]K-NH2) | – | – | – | – | – | – | 0.75 | 1.14 | significantly decreased the number of retching episodes | 82% | failed to reach statistical significance | modest, non-statistically significant (p>0.05) delay |
| Ghrelin: ghrelin peptide, reference article in the ferret study (GSSFLSPEHQRVQQRKESKKPPAKLQPR; ends and bridges not checked; UniProt Q9UBU3 24-51, looked up) [reference compound] | – | – | – | – | – | – | 1.60 | 7.00 | did not display a significant efficacy | – | – | Neither the onset time nor the numbers of retches or vomits were statistically different |
